The values below come from patent publication US20110236406A1, “IMMUNOGENIC COMPOSITIONS COMPRISING HMGB1 POLYPEPTIDES” (MedImmune, LLC, priority 2004, published 2011).

No end group written: not given here. *: point of attachment. Biotin = O=C1N[C@H]2[C@H](CS[C@H]2CCCCC(=O)*)N1

In experiment [1] the test system is human monocyte-derived DCs. Nature of the experiment: Cytokine and chemokine secretion by human immature monocyte-derived DCs (ELISA). Format: cell-based. Set-up: key to TNFα / IL-18 / IL-8 / IL-10 / IL-6 / IL-12: + indicates increase; − indicates no change compared to medium. The following applies: for IL-6 / IL-8 / IL-10 / IL-12 / IL-18 / TNFα: HUMAN DC, ELISA 48 h after exposure, compared to medium. The protocol:
(§1) PBMCs were isolated from the blood of normal volunteers (Long Island Blood Services, Melville, N.Y.) over a Ficoll-Hypaque (Amersham Biosciences, Uppsala, Sweden) density gradient. CD14^+ monocytes were isolated from PBMCs by positive selection using anti-CD14 beads (Miltenyi Biotech., Auburn, Calif.) following the manufacturer's instructions. To generate DCs, CD14^+ cells were cultured in RPMI 1640 medium supplemented with 2 mM L-glutamine (GIBCO-BRL Life Technologies; Grand Island, N.Y.), 50 μM 2-mercaptoethanol (Sigma, St. Louis, Mo.), 10 mM HEPES (GIBCO-BRL), penicillin (100 U/ml)-streptomycin (100 μg/ml) (GIBCO-BRL), and 5% human AB serum (Gemini Bio-Products, Woodland, Calif.). Cultures were maintained for 7 days in 6-well trays (3×10^6 cells/well) supplemented with 1000 U GM-CSF per ml (Immunex, Seattle, Wash.) and 200 U IL-4 per ml (R&D Systems; Minneapolis, Minn.) at days 0, 2, 4 and 6.
At day 7 of culture, immature DCs were either left untreated (“immature”, IM), or were stimulated with indicated doses of (i) LPS (E. coli serotype 026:B6, Sigma), (ii) 500 ng/ml of trimeric CD40L (Alexis Biochemicals; San Diego, Calif.), (iii) a cocktail of cytokines (CyC) consisting of IL-6 at 1000 U/ml, TNFα at 10 ng/ml, IL-1β at 10 ng/ml (all from R&D Systems) and prostaglandin E2 (PGE-2) at 1 μg/ml (Sigma), or with (v) non-methylated CpG oligonucleotides (5′ […] 3′) at 30 μg/ml. The sequence of this oligonucleotide is known to induce DC maturation (4), except that it contains an unmodified phosphodiester backbone. In all experiments, DCs were analyzed 48 h after stimulation. All experiments using the rB box were performed in the presence of polymyxin B sufficient to neutralize greater than 10-fold more LPS than present in rB box preparations.
(§2) 48 h post activation, the production of cytokines and chemokines in cell culture supernatants was measured by ELISA (Pierce Boston Technology Center, SearchLight™ Proteome Arrays Multiplex Sample Testing Services, Woburn, Mass.).
as §1, with “DCs, CD 14^+” for “DCs, CD14^+”
(§3) At day 7 of culture, immature DCs were either left untreated, or were stimulated with indicated doses of HMGB1-Bx, HMGB1 peptides, or LPS (E. coli serotype 026:B6, Sigma). In all experiments, DCs were analyzed 48 h after stimulation.
(In general: ELISA stands for enzyme-linked immunosorbent assay.)

The test system of experiment [2] is murine BM-DCs. Description: Cytokine and chemokine secretion by murine bone marrow-derived DCs (ELISA). The format is cell-based, mouse. The following applies: for IL-1β / IL-2 / IL-5 / IL-6 / IL-8 / IL-10 / IL-12 / IL-18 / TNFα: Murine DC, ELISA 48 h after exposure, compared to medium. On the set-up: key to TNFα / IL-18 / IL-8 / IL-10 / IL-2 / IL-1β / IL-5 / IL-6 / IL-12: + indicates increase; − indicates no change compared to medium. The protocol:
(§4) Bone marrow-derived DCs (BM-DC) were generated using modifications of the original method described by Inaba et al (42). In brief, bone marrow suspensions were incubated with red cell lysis buffer (PUREGENE™ RBC Lysis Solution, Gentra Systems, Minneapolis, Minn.) to remove red blood cells. After washing in media, lymphocytes and Ia-positive cells were killed with a cocktail of mAbs and rabbit complement for 60 min at 37° C. The mAbs were GK1.5 anti-CD4, TIB211 anti-CD8, TIB 120 anti-Ia, and TM 146 anti B220 (The Abs were kindly provided by Dr. Ralph Steinman). The cells were subsequently cultured in media containing 5% FCS and 10 ng/ml recombinant mouse GM-CSF (R&D Systems; Minneapolis, Minn.) for 7 days. For some experiments the cells were further purified at day 7 using CD11c^+-microbeads (Miltenyi Biotech., Auburn, Calif.) according to the manufacturer's instructions.
as §3, §2

The test system of experiment [3] is murine BM-DCs. Nature of the experiment: Phenotypic maturation of murine BM-DCs (surface markers, FACS). The format is cell-based, mouse. The following applies: CD11c+ gated BM-DCs, 48 h, peptides 200 μg/ml. How it is done: as §4, §3
1×10^4 DCs were reacted for at least 20 min at 4° C. in 100 μl of PBS/5% FCS/0.1% sodium azide (staining buffer) with fluorescein isothiocyanate (FITC)-conjugated IgG mAb specific for CD86, CD40 and MHC-II (eBioscience). Cells were then washed 4 times with staining buffer, fixed in 10% formaldehyde in PBS (pH 7.2-7.4) and examined by flow cytometry using a FACScan (BD). In all experiments, isotype controls were included using FITC-conjugated irrelevant mAb of the same Ig class.

Experiment [4] has as its system allogeneic T cells. Nature of the experiment: Mixed leukocyte reaction, stimulated murine BM-DCs with allogeneic T cells. The format is cell-based, mouse. The following applies: BM-DCs from C57/BL6 mice; HMGB1-Bx 50 μg/ml, peptides 200 μg/ml, 48 h; 5-day co-culture. The protocol: T cells were isolated by negative selection using the mouse SpinSep antibody cocktail from StemCell Technologies (Vancouver, Calif.) according to the manufacturer's instructions. The cell purity of the isolated T cells was routinely ˜99% pure.
To assess levels of T cell activation and proliferation, cells were plated at 10^5 cells per well in a round-bottomed 96-well tray at DC:T cell ratios of 1:120 for 5 days in medium described above. The microcultures were pulsed with (^3H)-thymidine (1 μCi/well) for the final 8 h of culture. Cell cultures were harvested onto glass fiber filters with an automated multiple sample harvester and the amount of isotope incorporation was determined by liquid scintillation β-emission. Responses are reported as mean cpm of thymidine incorporation by triplicate cultures (+/−SEM).

Experiment [5] deals with B box-induced DC maturation. Description: Signalling inhibitors on B box-induced CD83 upregulation and IL-6 secretion in DCs. The following applies: 30 min preincubation, then rB box 100 μg/ml, 48 h; SB203580 5 or 20 μM, PD98059 and TPCK 20 or 80 μM. The format is cell-based, human. The protocol:
FIG. 6. B box causes […] upregulation and IL-6 secretion via a p38 dependent pathway. Immature d7 DCs were preincubated for 30 min with (i) DMSO, (ii) PD98059 at 20 (P20) or 80 (P80) μM, (iii) SB203580 at 5 (S5) or 20 (S20) μM, (iv) TPCK at 20 (T20) or 80 (T80) μM and then treated with rB box (100 μg/ml), or cultured with DMSO in the absence of B box (medium). 48 h after activation the DCs were assayed for the surface expression of CD83 by FACS and IL-6 secretion was measured by ELISA. The results shown are mean+/−SEM of three independent experiments using DCs generated from different donors.
The p38 MAPK-specific inhibitor, SB203580, a pyridinyl imidazole compound, the MEK inhibitor PD98059, and N-tosyl-L-phenylalanine chloromethyl ketone (TPCK) were purchased from Sigma. Because these required solubilization in DMSO, DMSO was used as a negative control.
To obtain insight into the roles of ERK and p38 MAPK pathways in B box-induced DC maturation, we used their specific inhibitors, PD98059 and SB203580, respectively. To analyze the role of NF-κB we used TPCK, a serine protease inhibitor that blocks nuclear translocation of Rel/NF-κB by preventing IκB degradation.

[6] abbreviates: Example 2, peptides 200 μg/ml, HMGB1-Bx 50 μg/ml, polymyxin B, 48 h, FIG. 8C.
Where [7] appears, read: peptides 200 μg/ml, HMGB1-Bx 50 μg/ml, polymyxin B, 48 h.
[8] abbreviates: peptides 200 μg/ml, polymyxin B, 48 h.

Regarding “CSEYRPKIKGEHPGLSIG [Hp-106] (Biotin-CSEYRPKIKGEHPGLSIG; listed as Homo sapiens)”, the IL-6 release result in experiment [1] (Example 1, synthetic B box peptides at 200 μg/ml, FIGS. 3D, E) is on record as “specifically stimulated IL-6 release”. For the same compound, in experiment [1] (Example 2, peptides 200 μg/ml, HMGB1-Bx 50 μg/ml, polymyxin B, 48 h, FIG. 8A, 8B), the “secretion of IL-6” value is “induced secretion of IL-6”. For the same compound, in experiment [1] (setting [6]), the “secretion of IL-8” value is recorded as “not”, the “secretion of IL-12 (p70)” value is given as “increased secretion”, the “secretion of IL-18” value is given as “increased secretion” and the “secretion of TNF-α” value is listed as “increased secretion”. In addition, in experiment [1], the IL-6 entry is “+”, the IL-8 entry is listed as “−”, the IL-10 entry is “−” and the IL-12 entry is recorded as “+”. Also, in experiment [1], the IL-18 result is recorded as “+” and the TNFα result is given as “+”. Besides, in experiment [2], the IL-1β entry is recorded as “+”, the IL-2 entry is on record as “+”, the IL-5 entry is “+” and the IL-6 entry was “−”. Besides, in experiment [2], the IL-8 entry was “+”, the IL-10 entry is reported as “−”, the IL-12 entry is “+” and the IL-18 entry was “+”. Further, the TNFα entry in experiment [2] is recorded as “+”. Also, in experiment [2] (peptides 200 μg/ml, 48 h), the “activation of murine BM-DCs” value was “activated”. Further, in experiment [2] (setting [7]), the “secretion of IL-2” value was “enhanced secretion”, the “secretion of IL-5” value was “enhanced secretion”, the “secretion of IL-8” value is given as “enhanced secretion” and the “secretion of IL-12 (p70)” value was “enhanced secretion”. Also, in experiment [2] (setting [7]), the “secretion of IL-18” value was “enhanced secretion” and the “secretion of TNF-α” value is listed as “enhanced secretion”. Further, the “secretion of IL-10” value in experiment [2] (setting [8]) is given as “enhanced secretion”. Also, the “surface expression of maturation markers” value in experiment [3] was “did not significantly enhance”. In experiment [4], the “T cell stimulatory activity of exposed BM-DCs in mixed lymphocyte reaction” value is listed as “activated resting allogeneic T cells”.
Regarding `C[S+]([O-])c1ccc(-c2nc(-c3ccncc3)c(-c3ccc(F)cc3)[nH]2)cc1` (centres unmarked) [SB203580], in experiment [5], the “B box induced secretion of IL-6” value was “downregulated” and the “B box-induced upregulation of CD83” value is listed as “completely abrogated”.
With “YAFFVQTCREEHKKKHPD (Biotin-YAFFVQTCREEHKKKHPD; listed as Homo sapiens) [Hp-16]”, in experiment [1] (Example 2, peptides 200 μg/ml, 48 h), the “activation of human DCs” value was “no effect”. Moreover, in experiment [1], the IL-6 entry is on record as “−”, the IL-8 entry is “−”, the IL-10 result was “−” and the IL-12 entry is “−”. Moreover, in experiment [1], the IL-18 entry is on record as “−” and the TNFα entry is reported as “−”. In addition, in experiment [2], the IL-1β result is “+”, the IL-2 result is reported as “+”, the IL-5 result is “+” and the IL-6 result is on record as “−”. In experiment [2], the IL-8 result is listed as “−”, the IL-10 result is reported as “−”, the IL-12 entry was “+” and the IL-18 result was “+”. Besides, in experiment [2], the TNFα result is listed as “−”. In addition, in experiment [2] (peptides 200 μg/ml, 48 h), the “activation of murine BM-DCs” value is “activated”. Moreover, in experiment [2] (setting [7]), the “secretion of IL-2” value is “enhanced secretion”, the “secretion of IL-5” value is “enhanced secretion”, the “secretion of IL-12 (p70)” value is recorded as “enhanced secretion” and the “secretion of IL-18” value is “enhanced secretion”. Besides, the “secretion of IL-10” value in experiment [2] (setting [8]) was “enhanced secretion”. Further, in experiment [3] (HMGB1-Bx 50 μg/ml), the CD40 expression entry is listed as “strong upregulation”, the CD86 expression result was “strong upregulation” and the MHC-II expression result was “strong upregulation”. Besides, the “T cell stimulatory activity of exposed BM-DCs in mixed lymphocyte reaction” value in experiment [4] is recorded as “activated resting allogeneic T cells”.
